Reference: ChEMBL document CHEMBL3763033, “New quinoline derivatives as nicotinic receptor modulators” (Eur J Med Chem, 2016)
Calls of active or inactive are those of the source. No cut-off for these calls is given here.

What was measured:
Rattus norvegicus [1] = organism: Rattus norvegicus; experiment: Displacement of [3H]methyllycaconitine from Sprague-Dawley rat brain alpha7* nAChR at 1 uM incubated for 2.5 hrs by liquid scintillation counting analysis; format: tissue-based
Rattus norvegicus [2] = organism: Rattus norvegicus; experiment: Displacement of [3H]cytisine from Wistar rat cerebral cortex alpha4beta2* nAChR at 1 uM incubated for 75 mins by competition binding assay; format: tissue-based
[3] = Displacement of [3H]methyllycaconitine from Sprague-Dawley rat brain alpha7* nAChR incubated for 2.5 hrs by liquid scintillation counting analysis; format: tissue-based
Gallus gallus [4] = organism: Gallus gallus; experiment: Activation of chicken alpha7/GlyR chimeric receptor expressed in Xenopus oocytes at 50 uM after 36 to 72 hrs by two electrode voltage clamp method; format: cell-based
[5] = biological target: T1, Neuronal acetylcholine receptor subunit alpha-7 (Homo sapiens, UniProt P36544); experiment: Agonist activity at human alpha7 receptor expressed in mouse Neuro2a cells assessed as induction of intracellular calcium level preincubated with PNU-120596 for 20 mins followed by compound addition measured every 2 sec for 3 mins by fluorescence microplate reader analysis; format: cell-based
Gallus gallus [6] = organism: Gallus gallus; experiment: Antagonist activity at chicken alpha7/GlyR chimeric receptor expressed in Xenopus oocytes assessed as inhibition of acetylcholine-induced ion current at 50 uM preincubated with compound followed by 100 uM acetylcholine addition along with compound treatment measured after 36 to 72 hrs by two electrode voltage clamp method; format: cell-based
[7] = biological target: T1, Neuronal acetylcholine receptor subunit alpha-7; experiment: Agonist activity at human alpha7 receptor expressed in mouse Neuro2a cells assessed as induction of intracellular calcium level measured every 2 sec for 3 mins by fluorescence microplate reader analysis in presence of 2 uM alpha7 receptor antagonist alpha-cobratoxin; format: cell-based
[8] = Displacement of [3H]cytisine from Wistar rat cerebral cortex alpha4beta2* nAChR incubated for 75 mins by competition binding assay; format: tissue-based
Rattus norvegicus [9] = organism: Rattus norvegicus; experiment: Activation of rat alpha4beta2* nAChR expressed in Xenopus oocytes at 50 uM after 36 to 72 hrs by two electrode voltage clamp method; format: cell-based
Rattus norvegicus [10] = organism: Rattus norvegicus; experiment: Antagonist activity at rat alpha4beta2* nAChR expressed in Xenopus oocytes assessed as inhibition of epibatidine-induced ion current at 50 uM preincubated with compound followed by 1 uM epibatidine addition along with compound treatment measured after 36 to 72 hrs by two electrode voltage clamp method; format: cell-based
Rattus norvegicus [11] = organism: Rattus norvegicus; experiment: Selectivity ratio of Ki for Wistar rat cerebral cortex alpha4beta2* nAChR to Ki for Sprague-Dawley rat brain alpha7* nAChR; format: tissue-based
[12] = biological target: T1, Neuronal acetylcholine receptor subunit alpha-7; experiment: (§1) Antagonist activity at human alpha7 receptor expressed in mouse Neuro2a cells assessed as inhibition of acetylcholine iodide-induced intracellular calcium level at 300 uM preincubated with PNU-120596 for 20 mins followed by acetylcholine iodide addition along with compound treatment measured every 2 sec for 3 mins by fluorescence microplate reader analysis; format: cell-based
Rattus norvegicus [13] = organism: Rattus norvegicus; experiment: Selectivity ratio of Ki for Sprague-Dawley rat brain alpha7* nAChR to Ki for Wistar rat cerebral cortex alpha4beta2* nAChR; format: tissue-based
[14] = biological target: T1, Neuronal acetylcholine receptor subunit alpha-7; experiment: as §1, with “50” for “300”; format: cell-based

T1 sequence (P36544 whole entry): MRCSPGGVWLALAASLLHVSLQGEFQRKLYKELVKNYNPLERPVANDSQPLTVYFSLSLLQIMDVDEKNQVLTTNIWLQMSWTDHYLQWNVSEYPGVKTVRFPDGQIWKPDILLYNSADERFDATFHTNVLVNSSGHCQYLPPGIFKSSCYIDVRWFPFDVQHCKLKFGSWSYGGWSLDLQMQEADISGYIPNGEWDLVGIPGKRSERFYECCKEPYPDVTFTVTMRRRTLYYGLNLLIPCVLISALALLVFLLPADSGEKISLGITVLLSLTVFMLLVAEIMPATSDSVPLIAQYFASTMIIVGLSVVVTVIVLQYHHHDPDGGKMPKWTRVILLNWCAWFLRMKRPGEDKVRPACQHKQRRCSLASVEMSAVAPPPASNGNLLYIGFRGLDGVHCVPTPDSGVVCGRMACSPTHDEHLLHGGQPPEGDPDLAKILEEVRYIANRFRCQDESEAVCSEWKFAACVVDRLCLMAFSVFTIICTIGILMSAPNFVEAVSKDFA

## O=C(c1ccc2ncccc2c1)N1CCN2CCC1C2 (stereo not given)
Rattus norvegicus [1]
  Activity: < 20%
Rattus norvegicus [2]
  Activity: < 20%

## O=C(c1cccc2cnccc12)N1CCN2CCC1C2 (stereo not given)
Rattus norvegicus [1]
  Activity: < 20%
Rattus norvegicus [2]
  Activity: < 20%

## c1cnc2ccc(C3CN4CCC3CC4)cc2c1 (stereo not given)
Rattus norvegicus [1]
  Activity: < 20%
Rattus norvegicus [2]
  Activity: < 20%

## C[N+]12CCC(C1)N(C(=O)c1cccc3cnccc13)CC2 (stereo not given)
Rattus norvegicus [1]
  Activity: < 20%
Rattus norvegicus [2]
  Activity: < 20%

## C[N+]12C=C(c3ccc4ncccc4c3)C(CC1)CC2
Rattus norvegicus [1]
  Activity: < 20%
Rattus norvegicus [2]
  Activity: < 20%

## c1cnc2cc(N3CCN4CCC3C4)ccc2c1 (stereo not given)
Rattus norvegicus [1]
  Activity: < 20%
Rattus norvegicus [2]
  Activity: < 20%

## c1cnc2ccc(N3CCN4CCC3CC4)cc2c1
[3]
  Ki: 96 nM
Gallus gallus [4]
  Activity: inactive
[5]
  EC50: 1410 nM
Gallus gallus [6]
  inhibition: Active
[7]
  Activity: inactive
[8]
  Ki: > 1000 nM
Rattus norvegicus [9]
  Activity: inactive
Rattus norvegicus [10]
  inhibition: Active
Rattus norvegicus [11]
  Ratio Ki: 10

## O=C(c1cccc2cnccc12)N1CCN2CCC1CC2
Rattus norvegicus [1]
  Activity: < 20%
Rattus norvegicus [2]
  Activity: < 20%

## C[N+]12CCC(CC1)N(C(=O)c1ccc3ncccc3c1)CC2
Rattus norvegicus [1]
  Activity: < 20%
Rattus norvegicus [2]
  Activity: < 20%

## C1=C(c2ccc3ncccc3c2)C2CCN1CC2
Rattus norvegicus [1]
  Activity: < 20%
Rattus norvegicus [2]
  Activity: < 20%

## c1cc(N2CCN3CCC2C3)c2cccnc2c1 (stereo not given)
Rattus norvegicus [1]
  Activity: < 20%
Rattus norvegicus [2]
  Activity: < 20%

## O=C(c1ccc2cccnc2c1)N1CCN2CCC1CC2
Rattus norvegicus [1]
  Activity: < 20%
Rattus norvegicus [2]
  Activity: < 20%

## C[N+]12CCC(C1)N(c1ccc3cnccc3c1)CC2 (stereo not given)
Rattus norvegicus [1]
  Activity: < 20%
Rattus norvegicus [2]
  Activity: < 20%

## c1cc(N2CCN3CCC2CC3)c2cccnc2c1
Rattus norvegicus [1]
  Activity: < 20%
Rattus norvegicus [2]
  Activity: < 20%

## C[N+]12CCC(C1)N(C(=O)c1ccc3cccnc3c1)CC2 (stereo not given)
Rattus norvegicus [1]
  Activity: < 20%
Rattus norvegicus [2]
  Activity: < 20%

## C[N+]12CCC(C1)N(c1cccc3ncccc13)CC2 (stereo not given)
Rattus norvegicus [1]
  Activity: < 20%
Rattus norvegicus [2]
  Activity: < 20%

## CCN1C[C@]2(COC(=O)c3ccccc3N3C(=O)CC(C)C3=O)CC[C@H](OC)[C@@]34C2[C@H](OC)[C@](O)(C13)[C@@]1(O)C[C@H](OC)[C@H]2C[C@@H]4[C@@H]1[C@H]2OC (stereo not given in full)
[3]
  Ki: 1.4 nM

## CN1CCC[C@H]1c1cccnc1 [NICOTINE]
[8]
  Ki: 2.3 nM

## O=C(N[C@H]1CN2CCC1CC2)c1cc2cccc(Cl)c2s1 [ENCENICLINE]
[3]
  Ki: 9.98 nM

## c1cc2cc(N3CCN4CCC3C4)ccc2cn1 (stereo not given)
Rattus norvegicus [1]
  Activity: < 20%
Rattus norvegicus [2]
  Activity: < 20%

## C[N+]12CCC(C1)N(c1ccc3ncccc3c1)CC2 (stereo not given)
Rattus norvegicus [1]
  Activity: < 20%
Rattus norvegicus [2]
  Activity: < 20%

## O=C(N[C@H]1CN2CCC1CC2)c1ccc(Cl)cc1 [PNU-282987]
[3]
  Ki: 24 nM

## O=C(NC1CN2CCC1CC2)c1cccc2cnccc12 (stereo not given)
Rattus norvegicus [1]
  Activity: < 20%
Rattus norvegicus [2]
  Activity: < 20%

## C[N+]12CCC(CC1)N(C(=O)c1cccc3cnccc13)CC2
Rattus norvegicus [1]
  Activity: < 20%
Rattus norvegicus [2]
  Activity: < 20%

## Cc1ccc2oc(N3CCN4CCC3CC4)nc2n1
[3]
  Ki: 13.5 nM

## O=C(Oc1ccc(Br)cc1)N1CCN2CCC1CC2 [SSR180711]
[3]
  Ki: 22 nM

## C[N+]12CCC(CC1)C(NC(=O)c1ccc3cccnc3c1)C2 (stereo not given)
Rattus norvegicus [1]
  Activity: < 20%
Rattus norvegicus [2]
  Activity: < 20%

## c1cc2cc(N3CCN4CCC3CC4)ccc2cn1
[3]
  Ki: 248 nM
[8]
  Ki: > 1000 nM
Rattus norvegicus [11]
  Ratio Ki: 3

## C[N+]12CCC(CC1)C(NC(=O)c1ccc3ncccc3c1)C2 (stereo not given)
Rattus norvegicus [1]
  Activity: < 20%
Rattus norvegicus [2]
  Activity: < 20%

## O=C(c1ccc2ncccc2c1)N1CCN2CCC1CC2
Rattus norvegicus [1]
  Activity: < 20%
Rattus norvegicus [2]
  Activity: < 20%

## c1cnc2cc(N3CCN4CCC3CC4)ccc2c1
[3]
  Ki: 117 nM
Gallus gallus [4]
  Activity: inactive
[5]
  EC50: 1090 nM
Gallus gallus [6]
  inhibition: Active
[7]
  Activity: inactive
[8]
  Ki: > 1000 nM
Rattus norvegicus [9]
  Activity: inactive
Rattus norvegicus [10]
  inhibition: Active
Rattus norvegicus [11]
  Ratio Ki: 3

## c1cncc(C2CCC3CCN2CC3)c1 (stereo not given)
[3]
  Ki: 11 nM

## c1cnc2ccc(N3CCN4CCC3C4)cc2c1 (stereo not given)
[12]
  inhibition: Active
[3]
  Ki: > 1000 nM
Gallus gallus [4]
  Activity: inactive
Gallus gallus [6]
  inhibition: Active
Rattus norvegicus [13]
  Ratio Ki: 2
[8]
  Ki: 412 nM
Rattus norvegicus [9]
  Activity: inactive
Rattus norvegicus [10]
  inhibition: Active

## O=C(c1ccc2cccnc2c1)N1CCN2CCC1C2 (stereo not given)
Rattus norvegicus [1]
  Activity: < 20%
Rattus norvegicus [2]
  Activity: < 20%

## C[N+]12CCC(CC1)C(NC(=O)c1cccc3cnccc13)C2 (stereo not given)
Rattus norvegicus [1]
  Activity: < 20%
Rattus norvegicus [2]
  Activity: < 20%

## C[N+]12CCC(CC1)N(C(=O)c1ccc3cccnc3c1)CC2
Rattus norvegicus [1]
  Activity: < 20%
Rattus norvegicus [2]
  Activity: < 20%

## O=C(NC1CN2CCC1CC2)c1ccc2cccnc2c1 (stereo not given)
[3]
  Ki: 287 nM
Gallus gallus [4]
  Activity: inactive
[5]
  EC50: 1570 nM
Gallus gallus [6]
  inhibition: Active
[7]
  Activity: inactive
[14]
  inhibition: Active
[8]
  Ki: > 1000 nM
Rattus norvegicus [9]
  Activity: inactive
Rattus norvegicus [10]
  inhibition: Active
Rattus norvegicus [11]
  Ratio Ki: 3

## O=C(NC1CN2CCC1CC2)c1ccc2ncccc2c1 (stereo not given)
Rattus norvegicus [1]
  Activity: < 20%
Rattus norvegicus [2]
  Activity: < 20%

## C[N+]12CCC(C1)N(C(=O)c1ccc3ncccc3c1)CC2 (stereo not given)
Rattus norvegicus [1]
  Activity: < 20%
Rattus norvegicus [2]
  Activity: < 20%
